In publication PMC7053212, “Auger radiopharmaceutical therapy targeting prostate-specific membrane antigen in a micrometastatic model of prostate cancer” (Theranostics, 2020):
“Also recorded” adds a separate entry of the source. Read-outs that look alike come from different tables or passages of the source.

Tests used:
metastatic PC = tested on: metastatic PC; parameters: method as in PMID 23863050; conditions: cited from earlier work
[1] = parameters: method as in PMID 27230930; conditions: cited from earlier work
[2] = tested on: PSMA-positive micrometastatic PC model; parameters: method as in PMID 27230930; conditions: 740 kBq; cited from earlier work
[3] = Long-term biodistribution in normal tissues of non-tumor-bearing mice; format: in vivo, CD1 mice; conditions: 18.5 MBq iv, mean
Protocol: Comparison between tumor and kidney uptake was performed using Student's t-test.

[4] = Long-term toxicity evaluation and necropsy, non-tumor-bearing mice; format: in vivo, CD1 mice
Protocol: Urinalysis evaluating specific gravity and urine protein levels via dipstick (Chemstrip Test Strips, Roche Diagnostics) was performed monthly for each animal. Terminal clinical and anatomic pathology was done in the Johns Hopkins Phenotyping and Comparative Pathology Core. Assessments included serum metabolic panel, blood counts, and complete necropsy with histopathology of more than 30 tissues as described previously.

[5] = tested on: epidermal growth factor receptor-positive metastatic breast cancer; parameters: method as in PMID 24753984; conditions: activities up to 2.3 GBq; cited from earlier work
[6] = any activity up to 111 MBq, 12 months

Molecule: [Cl][223Ra][Cl] [^223RaCl2]
- Prolongation of survival (metastatic PC): 3 months

Molecule: O=C(O)CC[C@H](NC(=O)NC(CCCCNC(=O)c1ccc([211At])cc1)C(=O)O)C(=O)O (stereo partly drawn) [^211At-PSMA-6, (2S)-2-(3-(1-carboxy-5-(4-^211At-astatobenzamido)pentyl)ureido)-pentanedioic acid]
- Maximum tolerated dose (MTD) ([1]; CD1 mice): 37 kBq
- Dose-limiting toxicity [1]: dose-limiting late nephrotoxicity
- Increase in median survival [2]: ~2 fold

Molecule: O=C(O)CCC(NC(=O)NC(CCCCNC(=O)c1ccc([125I])cc1)C(=O)O)C(=O)O (stereo not shown) [^125I-DCIBzL]
- % Injected Dose/gram Bladder ([3]; 2 weeks): 0.15 % Injected Dose/gram
- % Injected Dose/gram Blood ([3]; 2 weeks): 0.01 % Injected Dose/gram
- % Injected Dose/gram Heart ([3]; 2 weeks): 0.05 % Injected Dose/gram
- % Injected Dose/gram Large intestine ([3]; 2 weeks): 0.05 % Injected Dose/gram
- % Injected Dose/gram Liver ([3]; 2 weeks): 0.05 % Injected Dose/gram
- % Injected Dose/gram Lung ([3]; 2 weeks): 0.31 % Injected Dose/gram
- % Injected Dose/gram Muscle ([3]; 2 weeks): 0.05 % Injected Dose/gram
- % Injected Dose/gram Pancreas ([3]; 2 weeks): 0.07 % Injected Dose/gram
- % Injected Dose/gram Salivary gland ([3]; 2 weeks): 0.13 % Injected Dose/gram
- % Injected Dose/gram Small intestine ([3]; 2 weeks): 0.03 % Injected Dose/gram
- % Injected Dose/gram Spleen ([3]; 2 weeks): 0.77 % Injected Dose/gram
- % Injected Dose/gram Stomach ([3]; 2 weeks): 0.05 % Injected Dose/gram
- % Injected Dose/gram Bladder ([3]; 4 weeks): 0.06 % Injected Dose/gram
- % Injected Dose/gram Blood ([3]; 4 weeks): 0.00 % Injected Dose/gram
- % Injected Dose/gram Heart ([3]; 4 weeks): 0.02 % Injected Dose/gram
- % Injected Dose/gram Large intestine ([3]; 4 weeks): 0.02 % Injected Dose/gram
- % Injected Dose/gram Liver ([3]; 4 weeks): 0.02 % Injected Dose/gram
- % Injected Dose/gram Lung ([3]; 4 weeks): 0.12 % Injected Dose/gram
- % Injected Dose/gram Muscle ([3]; 4 weeks): 0.03 % Injected Dose/gram
- % Injected Dose/gram Pancreas ([3]; 4 weeks): 0.03 % Injected Dose/gram
- % Injected Dose/gram Salivary gland ([3]; 4 weeks): 0.05 % Injected Dose/gram
- % Injected Dose/gram Small intestine ([3]; 4 weeks): 0.02 % Injected Dose/gram
- % Injected Dose/gram Spleen ([3]; 4 weeks): 0.36 % Injected Dose/gram
- % Injected Dose/gram Stomach ([3]; 4 weeks): 0.02 % Injected Dose/gram
- % Injected Dose/gram Bladder ([3]; 6 weeks): 0.04 % Injected Dose/gram
- % Injected Dose/gram Blood ([3]; 6 weeks): 0.00 % Injected Dose/gram
- % Injected Dose/gram Heart ([3]; 6 weeks): 0.01 % Injected Dose/gram
- % Injected Dose/gram Large intestine ([3]; 6 weeks): 0.02 % Injected Dose/gram
- % Injected Dose/gram Liver ([3]; 6 weeks): 0.01 % Injected Dose/gram
- % Injected Dose/gram Lung ([3]; 6 weeks): 0.05 % Injected Dose/gram
- % Injected Dose/gram Muscle ([3]; 6 weeks): 0.02 % Injected Dose/gram
- % Injected Dose/gram Pancreas ([3]; 6 weeks): 0.02 % Injected Dose/gram
- % Injected Dose/gram Salivary gland ([3]; 6 weeks): 0.02 % Injected Dose/gram
- % Injected Dose/gram Small intestine ([3]; 6 weeks): 0.01 % Injected Dose/gram
- % Injected Dose/gram Spleen ([3]; 6 weeks): 0.10 % Injected Dose/gram
- % Injected Dose/gram Stomach ([3]; 6 weeks): 0.01 % Injected Dose/gram
- % Injected Dose/gram Bladder ([3]; 8 weeks): 0.01 % Injected Dose/gram
- % Injected Dose/gram Blood ([3]; 8 weeks): 0.00 % Injected Dose/gram
- % Injected Dose/gram Heart ([3]; 8 weeks): 0.00 % Injected Dose/gram
- % Injected Dose/gram Large intestine ([3]; 8 weeks): 0.01 % Injected Dose/gram
- % Injected Dose/gram Liver ([3]; 8 weeks): 0.00 % Injected Dose/gram
- % Injected Dose/gram Lung ([3]; 8 weeks): 0.03 % Injected Dose/gram
- % Injected Dose/gram Muscle ([3]; 8 weeks): 0.01 % Injected Dose/gram
- % Injected Dose/gram Pancreas ([3]; 8 weeks): 0.01 % Injected Dose/gram
- % Injected Dose/gram Salivary gland ([3]; 8 weeks): 0.01 % Injected Dose/gram
- % Injected Dose/gram Small intestine ([3]; 8 weeks): 0.01 % Injected Dose/gram
- % Injected Dose/gram Spleen ([3]; 8 weeks): 0.05 % Injected Dose/gram
- % Injected Dose/gram Stomach ([3]; 8 weeks): 0.00 % Injected Dose/gram
- % Injected Dose/gram Bladder ([3]; 10 weeks): 0.00 % Injected Dose/gram
- % Injected Dose/gram Blood ([3]; 10 weeks): 0.00 % Injected Dose/gram
- % Injected Dose/gram Heart ([3]; 10 weeks): 0.00 % Injected Dose/gram
- % Injected Dose/gram Large intestine ([3]; 10 weeks): 0.00 % Injected Dose/gram
- % Injected Dose/gram Liver ([3]; 10 weeks): 0.00 % Injected Dose/gram
- % Injected Dose/gram Lung ([3]; 10 weeks): 0.00 % Injected Dose/gram
- % Injected Dose/gram Muscle ([3]; 10 weeks): 0.00 % Injected Dose/gram
- % Injected Dose/gram Pancreas ([3]; 10 weeks): 0.00 % Injected Dose/gram
- % Injected Dose/gram Salivary gland ([3]; 10 weeks): 0.00 % Injected Dose/gram
- % Injected Dose/gram Small intestine ([3]; 10 weeks): 0.00 % Injected Dose/gram
- % Injected Dose/gram Spleen ([3]; 10 weeks): 0.01 % Injected Dose/gram
- % Injected Dose/gram Stomach ([3]; 10 weeks): 0.00 % Injected Dose/gram
- % Injected Dose/gram Bladder ([3]; 12 weeks): 0.00 % Injected Dose/gram
- % Injected Dose/gram Blood ([3]; 12 weeks): 0.00 % Injected Dose/gram
- % Injected Dose/gram Heart ([3]; 12 weeks): 0.00 % Injected Dose/gram
- % Injected Dose/gram Large intestine ([3]; 12 weeks): 0.00 % Injected Dose/gram
- % Injected Dose/gram Liver ([3]; 12 weeks): 0.00 % Injected Dose/gram
- % Injected Dose/gram Lung ([3]; 12 weeks): 0.01 % Injected Dose/gram
- % Injected Dose/gram Muscle ([3]; 12 weeks): 0.00 % Injected Dose/gram
- % Injected Dose/gram Pancreas ([3]; 12 weeks): 0.00 % Injected Dose/gram
- % Injected Dose/gram Salivary gland ([3]; 12 weeks): 0.00 % Injected Dose/gram
- % Injected Dose/gram Small intestine ([3]; 12 weeks): 0.00 % Injected Dose/gram
- % Injected Dose/gram Spleen ([3]; 12 weeks): 0.01 % Injected Dose/gram
- % Injected Dose/gram Stomach ([3]; 12 weeks): 0.00 % Injected Dose/gram
- Average blood urea nitrogen ([4]; 111 MBq, necropsy at 12 months): 14.5 mg/dL
- Average creatinine ([4]; 111 MBq, necropsy at 12 months): 0.4 mg/dL
- Maximum tolerated dose (MTD) ([4]; CD1 mice, 12 months): at least 111 MBq
- Maximum tolerated dose (MTD) ([4]; activities up to 111 MBq iv, 12 months): not reached
- Death from toxicity [4, 6]: No mouse treated with any activity of ^125I-DCIBzL died from toxicity
- Long-term toxicity (weight, urinalysis, necropsy) [4, 6]: no appreciable toxicity; also recorded: no acute or long-term toxicity was noted; also recorded: no long-term toxicities were noted
- Renal histopathology ([4]; highest activities, 12 months): mild renal tubule epithelial hypertrophic changes with occasional atypia
- Average hemoglobin at necropsy ([4]; treated mice, 12 months): 12.8 g/dL
- Long-term hematologic toxicity (histopathology of spleen, bone marrow, lymph nodes) ([4]; treated mice, 12 months): not noted
- Late nephropathy on necropsy ([4]; up to 111 MBq, 12 months): no evidence of late nephropathy
- Changes in body weight or urine protein levels ([4]; up to 111 MBq, 12 months, vs untreated): no consistent changes

Molecule: ^111In-DTPA-hEGF: Auger RPT evaluated in a Phase I trial of epidermal growth factor receptor-positive metastatic breast cancer
- MTD [5]: not reached
